In patent publication US6881825B1, “Identication of peptides that facilitate uptake and cytoplasmic and/or nuclear transport of proteins, DNA and virues” (University of Pittsburgh of The Commonwealth System of …, priority 1999, dated 2005):
Entries after “also recorded” stand apart in the source; their conditions may differ.

Experiments:
Hig-82 cells [1] = experiment: Peptide-β-gal complex internalization, X-gal staining; type: cell-based, rabbit; conditions: for transduction/transfer activity of the peptide (in words): as summarised with CD spectra and competition data; for relative strength of internalization of β-gal (concentration needed): FIG. 1B, various concentrations of peptide linked to β-gal, 1:1=150 nM of β-gal
Description: (§1) Internalizing peptides 1-6 (SEQ ID Nos:1-6 respectively), which were identified as described above in Example 3, were synthesized, and biotinylated (synthesis and biotinylation performed by the Biotech Center of the University of Pittsburgh). The biotinylated peptides were then conjugated to avidin β-gal or avidin Cy3 at room temperature for 2 hours.
(§2) The peptide conjugates were then added to cells (Hig-82 cells, rabbit synovial cells, human synovial cells, rabbit synovial lining, human primary airway cells HBE 144, human primary islet cells, murine myoblast cells C2C12, dog kidney epithelial cells MDCK, murine fibroblast cells NIH3T3 and murine tumor cells MCA 205 (human synovial cells and human primary airway cells (HBE144) were isolated from patients from the Presbyterian Hospital, University of Pittsburgh by standard techniques for establishing a primary cell culture; human islet cells were provided by the University of Miami and were isolated by standard techniques for establishing a primary cell culture; C2C12, MDCK, 3T3 and MCA205 cells were purchased from ATTC, Bethesda, Md.; all cells were cultured in DMEM and grown to 100% confluency) and incubated while gently rotating at 37° C. for 3 hours with TBS buffer. The cells were then washed 10 times with TBS buffer and fixed with 4% paraformaldehyde at room temperature for 30 minutes. Cells were then washed 3 times with TBS buffer and stained with 1 mg/ml X-gal (Bochringer Mannheim, Indianapolis) at 37° C. overnight for β-gal-conjugated peptides. Cells which were blue indicated the presence of β-gal in the cells. For Cy3-conjugated peptides, fluorescence of the cells as measured by confocal microscopy indicated the ability of the peptide to internalize the Cy3 (a small molecule cargo).
TAT-PTD (YGRKKRRQRRR; SEQ ID NO:21), and a random control peptide (ARPILEHGSDKAT; SEQ ID NO:20). […] In FIG. 1B, various concentrations of peptides linked to β-gal were tested (1:1=150 nM of β-gal).

rabbit synovial lining = experiment: In vivo transfer of peptide-conjugated β-gal after injection into rabbit knee; conditions: for level of uptake of β-gal into rabbit synovial lining: FIG. 4A, injection into rabbit knee, compared with adenoviral vector encoding β-gal
Description: Peptide-β-gal complexes (fusions) were injected into rabbit knee synovial lining, the lining as then removed, washed with wash buffer, fixed with 4% paraformaldehyde, and stained with β-gal.
(§3) Peptide 5 (SEQ ID NO:5) was able to facilitate uptake of β-gal in nearly 100% of the synovial cells in vivo (FIG. 4B).

[2] = system: rabbit synovial fibroblasts; experiment: Internalization of Cy3-labeled peptide/M13 phage complex; type: cell-based; conditions: FIG. 13D vs control phage
Excerpt: Therefore, the peptides of the present invention are useful for facilitating the internalization of virus and viral vectors.

human synovial cells = experiment: Peptide-β-gal internalization, X-gal staining; type: cell-based; conditions: human (primary) synovial cells; FIG. 3, 6C
Description: as §1, §2

rabbit synovial cells = experiment: Peptide-β-gal internalization, X-gal staining; type: cell-based; conditions: rabbit (primary) synovial cells; FIG. 2, 6B
Description: as §1, §2

Hig-82 cells [3] = experiment: Peptide competition assay for internalization of peptide-conjugated β-gal; type: cell-based, rabbit; conditions: for blocking of internalization of peptide-conjugated β-gal by non-biotinylated peptide: FIG. 5, conjugates of peptide 2, 3, 4 and 5, 3 hours at 37° C.
Description: A peptide competition assay was carried out to determine the relative efficiency and specificity of the various peptides. The peptides were conjugated to β-gal as described above in Example 4 and incubated with Hig-82 cells grown to 85% confluency in 24 well plates in the presence of non biotinylated peptides for 3 hours at 37° C. in TBS buffer while being gently rotated. The cells were then washed 10 times with TBS buffer, fixed with 4% paraformaldehyde at room temperature for 30 minutes, washed 3 times with TBS buffer, and stained with Xgal, as described above in Example 4, overnight. Cells which stained blue had internalized peptide-conjugated β-gal.

MCA 205 tumor cells = experiment: Intra-tumoral injection of peptide-β-gal complex, X-gal staining of tumor; type: in vivo, mouse; conditions: day 14 subcutaneous MCA-205 tumors, single intra-tumoral injection
Description: as §3
To make the nucleic acid encoding the peptide-eGFP fusion depicted in FIG. 9A, PCR was employed using 5′ and 3′ primers that encoded the peptide and a his tag, respectively, and had complimentary sequences to eGFP DNA coding sequences. […] MCA 205 tumor cells (5×10^5 cells) were injected subcutaneously into the flank of a C57/BL6 mouse. At day 14, a single intra-tumoral injection of the peptide β-gal complex was performed. The mice were sacrificed 3 hours post-injection and the tumor tissue was isolated, sectioned and stained with X-gal.

Hig-82 cells [4] = experiment: Internalization of peptide-streptavidin-488 complex, fluorescence and confocal microscopy; type: cell-based, rabbit
Excerpt: See Bayer et al., Histochem. Cytochem. 24:933-939 (1976); Ivanenkov & Menon, Biochim. Biophys. Acta. 1448:463-472 (1999). The use of the 488 flourescent marker allows for analysis of the treated cells by confocal microscopy to determine the exact location of the complexes in the cells.

HIG82 cells = experiment: Cell viability by MTT assay (OD 570 nm); type: cell-based, rabbit; conditions: HIG-82 cells; 100-3.1 μM peptide, three hours; FIG. 14, 15
Description: 2×10^5 cells (HIG82, MCA205 or Jurkatt) were seeded into 24 well plates. Forty-eight hours later, 100 μM, 50 μM, 25 μM, 6.25 μM and 3.1 μM of the either the death peptide (SEQ ID NO:24), peptide 5 alone (SEQ ID NO:5) or the apoptotic peptide alone (SEQ ID NO:23) was added to the cells. To check for cell viability, three hours later, the media was aspirated and 1 ml of scrum-free media containing 0.25 mg of MTT was added to each well and incubated for 4 hours at 37° C. MTT-containing media was then removed and 1 ml of absolute isopropanol containing 0.4N HCl was added. Photographs were taken of the plates, then the cells were harvested and any debris was centrifuged. OD as taken at λ=570 nm. Each sample point was performed in triplicate.

[5] = system: C2C12 murine myoblast cells; experiment: Peptide-β-gal uptake, X-gal staining; type: cell-based; conditions: FIG. 6G
Description: as §2
(§4) FIG. 9A is a schematic representation of the expression construct encoding the peptide5-eGFP fusion protein.

[6] = system: HBE 144 primary human airway epithelial cells; experiment: Peptide-β-gal uptake, X-gal staining; type: cell-based; conditions: FIG. 6D
Description: as §2, §4

[7] = system: MCA205 murine fibrosarcoma cells; experiment: Peptide-β-gal uptake, X-gal staining; type: cell-based; conditions: FIG. 6H
Description: as §2, §4

[8] = system: MDCK polarized canine kidney cells; experiment: Peptide-β-gal uptake, X-gal staining; type: cell-based; conditions: FIG. 6E
Description: as §2, §4

[9] = system: human β islet primary cells; experiment: Peptide-β-gal uptake, X-gal staining; type: cell-based; conditions: FIG. 6F
Description: as §2, §4

NIH3T3 cells = experiment: Peptide-β-gal uptake, X-gal staining; type: cell-based, murine; conditions: FIG. 6I
Description: as §2, with “Cells which were blue indicated the presence of β-gal in the cells.” left out, “cargo). […]” for “cargo).”

human islets = experiment: Internalization of peptide5-eGFP fusion protein, fluorescence; type: cell-based; conditions: peptide fused to eGFP; FIG. 9B-E
human dendritic cells = experiment: as above; type: cell-based; conditions: peptide fused to eGFP; FIG. 9F-G
CD34+/LIN− stem cells = experiment: Transduction with biotin-peptide/avidin-β-gal complex; type: cell-based; conditions: FIG. 17
Excerpt: Peptide 5 is biotin labeled and the β-gal is avidin labeled so that they may be linked together by an avidin/biotin interaction. The cells which stained dark were transduced with the peptide/β-gal complex as indicated by an arrow.

[10] = FIG. 12, 100 fold excess of competitor

Sequence | transduction/transfer activity of the peptide (in words) (Hig-82 cells [1]) | level of uptake of β-gal into rabbit synovial lining (rabbit synovial lining) | internalization of intact M13 phage (and nuclear localization of protein complexes) [2] | internalization of β-gal (rabbit synovial cells) | blocking of internalization of peptide-conjugated β-gal by non-biotinylated peptide (Hig-82 cells [3]) | β-gal staining / internalization in murine tumors in vivo (MCA 205 tumor cells) | also measured
ARPILEHGSDKAT (ARPLEHGSDKAT; random peptide library) [reference compound] | does not have activity | no uptake |  |  |  |  | 
KRIHPRLTRSIR (random peptide library) [peptide 2] | intermediate activity |  | able to facilitate internalization and nuclear localization of protein complexes as well as intact M13 phage |  |  |  | 
KRIIQRILSRNS (random peptide library) [peptide 1] | lower activity |  |  | facilitate the internalization of β-gal into rabbit synovial cells | did not block the internalization by any of the peptides |  | internalization of β-gal (human synovial cells): facilitate the internalization of β-gal into human synovial cells
MHKRPTTPSRKM (random peptide library) [peptide 6] | only weakly able to transduce cells |  |  |  |  |  | transduction/transfer activity of the peptide (in words) (Hig-82 cells [1]; listed as SEQ ID NO:6): lower activity; inhibition of uptake of peptide 2 and 3 (Hig-82 cells [3]; FIG. 12): able to inhibit
PIRRRKKLRRLK (random peptide library) [peptide 4] | highly active | highest level of uptake | able to facilitate internalization and nuclear localization of protein complexes as well as intact M13 phage |  | blocked the internalization of peptide 2 through peptide 6-conjugated β-gal |  | 
PPRLRKRRQLNM (random peptide library) [peptide 3] | intermediate activity |  | able to facilitate internalization and nuclear localization of protein complexes as well as intact M13 phage | facilitate the internalization of β-gal into rabbit synovial cells |  | facilitate the internalization of β-gal into murine tumor cells in vivo | relative strength of internalization of β-gal (concentration needed) (Hig-82 cells [1]): achieved internalization of β-gal at a slightly higher concentration
RQIKIWFQNRRMKWKK (antennepedia) [antennapedia peptide, reference compound] |  |  |  |  |  | facilitate the internalization of β-gal into murine tumor cells in vivo | 
RRQRRTSKLMKR (random peptide library) [peptide 5] | highly active | highest level of uptake | detected in the treated cells | facilitate the uptake of β-gal | blocked the internalization of peptide 2 through peptide 6-conjugated β-gal | significant β-gal staining; also recorded: facilitate the internalization of β-gal into murine tumor cells in vivo | relative strength of internalization of β-gal (concentration needed) (Hig-82 cells [1]): effect internalization of β-gal linked thereto at a concentration equal to or less than TAT-PTD; uptake of β-gal (Hig-82 cells [1]; FIG. 6A, HIG-82 cells): facilitate the uptake of β-gal; internalization of β-gal (human synovial cells): facilitate the internalization of β-gal into human synovial cells; also recorded: facilitate the uptake of β-gal; synovial cells with uptake of β-gal in vivo (rabbit synovial lining; FIG. 4B, histology, eosin counter-stain): ~100%; internalization of streptavidin-488 complex (Hig-82 cells [4]; FIG. 13A, biotinylated peptide coupled to streptavidin-488): efficient internalization; nuclear localization of peptide-streptavidin-488 complex (Hig-82 cells [4]; FIG. 13B, confocal microscopy): significant percentage of the peptide-streptavidin-488 complex being found in the nucleus; inhibition of uptake of TAT-PTD and peptide 5 itself (Hig-82 cells [3]; [10]): significantly inhibit; inhibition of uptake of peptides 3, 4 and antennapedia peptide (Hig-82 cells [3]; [10]): completely inhibit; cell viability (MTT, OD570) (HIG82 cells): did not impair viability; uptake of β-gal [5]: facilitate the uptake of β-gal; uptake of β-gal [6]: facilitate the uptake of β-gal; uptake of β-gal [7]: facilitate the uptake of β-gal; uptake of β-gal [8]: facilitate the uptake of β-gal; uptake of β-gal [9]: facilitate the uptake of β-gal; uptake of β-gal (NIH3T3 cells): facilitate the uptake of β-gal; internalization of eGFP (human islets): facilitate internalization of eGFP in human islets; internalization of eGFP (human dendritic cells): facilitate the internalization of EGFP in human dendritic cells; transduction of stem cells with β-gal (CD34+/LIN− stem cells): transduce CD34+/LIN− stem cells
YGRKKRRQRRR (human) [TAT-PTD, reference compound] |  | highest level of uptake |  |  |  |  | 
